Results: ChEMBL document CHEMBL1142385, “Nitro as a novel zinc-binding group in the inhibition of carboxypeptidase A” (Bioorg Med Chem, 2008)

Molecular target: T1, Carboxypeptidase A1 (Homo sapiens, UniProt P15085)
T1 sequence (P15085 whole entry): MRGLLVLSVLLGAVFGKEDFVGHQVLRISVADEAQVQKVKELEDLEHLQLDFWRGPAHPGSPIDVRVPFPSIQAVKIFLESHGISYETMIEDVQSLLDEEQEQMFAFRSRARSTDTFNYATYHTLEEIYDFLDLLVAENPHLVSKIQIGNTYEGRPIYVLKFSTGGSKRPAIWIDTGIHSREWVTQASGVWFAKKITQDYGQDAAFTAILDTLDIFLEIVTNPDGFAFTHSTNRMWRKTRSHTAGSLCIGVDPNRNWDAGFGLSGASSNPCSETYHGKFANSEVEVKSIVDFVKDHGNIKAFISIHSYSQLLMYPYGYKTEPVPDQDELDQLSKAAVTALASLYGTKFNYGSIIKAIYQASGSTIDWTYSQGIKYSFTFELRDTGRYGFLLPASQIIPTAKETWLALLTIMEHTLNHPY
Experiment: Inhibition of CPA

Compound | Ki
O=C(O)C[C@@H](Cc1ccccc1)C(=O)O | 450 nM
CC(C)CC(C[N+](=O)[O-])C(=O)O (racemic) | 2080 nM
O=C(O)[C@@H](Cc1ccccc1)C[N+](=O)[O-] | 68000 nM
O=C(O)C(Cc1ccccc1)C[N+](=O)[O-] (racemic) | 790 nM
C=CCC(C[N+](=O)[O-])C(=O)O (racemic) | 62600 nM
